In experiment [1] the target is T1, hSkM1 isoform of Na+ channels (Homo sapiens, UniProt P35499).
T1 construct: expressed in transfected cells
The experiment can be described thus: Electrophysiological assay, whole-cell patch-clamp recordings of voltage-sensitive Na+ currents. Type of experiment: cell-based. As to conditions: HEK-293 cells stably expressing hSkM1. The method, then:
Cell preparalion. HEK-293 cells stably expressing the hSkM1 isoform of Na^+ channels (generous gift from Dr. A. L. George, Vanderbilt University Medical School) were cultured using standard techniques, as described previously (Verdoorn, T. A, et al., Neuron 4:919-928 (1990)). For electrophysiology, cells were plated onto 35 mm Petri dishes (pre-coated with poly-D-lysine) at a density of 1:40 on the day of re-seeding from confluent cultures. Our experience has been that cells are suitable for recordings for 2-3 days after plating.
Patch-clamp recordings of voltage-sensitive Na^+ currenis. Whole-cell voltage-clamp recordings were made using conventional patch-clamp techniques (Hamill et al, Pfluegers Arch. 391:85-100 (1981)) with an Axopatch 200A amplifier (Axon Instruments, Foster City, Calif.). Recordings were made within 2-3 hours after neuron dissociation. The recording chamber was continuously superfused with the external solution (150 mM NaCl, 5.4 mM KCl, 1.8 mM CaCl2, 1 mM MgCl2, 10 mM HEPES, 10 mM glucose, pH 7.4 (NaOH)) at a speed of about 1 mL/min. Recording pipettes were pulled from thick-walled capillaries (WPI, Sarasota, Fla.) and fire-polished. The pipette resistances ranged from 1 to 3 MΩ when the pipettes were filled with internal solution containing (in mM): 110 CsF, 10 NaCl, 5 MgCl2, 11 EGTA, 10 HEPES, pH adjusted to 7.4 with CsOH. Osmolality was set with a difference of 15-20 mmol/kg between external and internal solutions (lower inside the cell). Drugs and intervening wash-outs were applied through a linear array of flow pipes (Drummond Microcaps, 2 μL, 64-mm length). […] Currents were recorded at room temperature (22-25° C.), filtered at 5 kHz with an active 8-pole Bessel filter (Frequency Devices, Haverhill, Mass.), digitized at 10-50 μs intervals, and stored using Digidata 1200 analog/digital interface with Pclamp6/Clampex software (Axon Instruments). […] The inhibitory potency of drugs was assessed by measuring reductions in the peak amplitude of Na^+ currents induced by increasing concentrations of compounds tested. […]

Experiment [2] concerns maximal electroshock-induced seizures (MES). In words: maximum electroshock seizure test (MES). Type of experiment: in vivo. Conditions: Mus musculus, iv; mice, injected i.v. 15 minutes before the test procedure; read-out: ED50 (the dose protecting 50% of animals), protection against MES. From the text:
The compounds of the present invention may be tested for in vivo anticonvulsant activity after i.v., p.o. or i.p. injection using a number of anticonvulsant tests in mice, including the maximum electroshock seizure test (MES). Maximum electroshock seizures were induced in male NSA mice weighing between 15-20 g and male Sprague-Dawley rats weighing between 200-225 g by application of current (50 mA, 60 pulses/sec, 0.8 msec pulse width, 1 sec duration, D.C., mice; 99 mA. 125 pulses/sec, 0.8 msec pulse width, 2 sec duration, D.C., rats) using a Ugo Basile FCT device (Model 7801). Mice were restrained by gripping the loose skin on their dorsal surface and saline-coated corneal electrodes were held lightly against the two corneae. Rats were allowed free movement on the bench top and ear-clip electrodes were used. […] A tonic seizure was defined as a hindlimb extension in excess of 90 degrees from the plane of the body. Results were treated in a quantal manner. The ability of N^3-[4-(4-fluorophenoxy)benzyl]pyridine-2,3-diamine to block maximal electroshock-iniduced seizures (MES) was determined according to the method above. N^3-[4-(4-Fluorophenoxy)benzyl]pyridine-2,3-diamine was injected i.v. to mice 15 minutes before the test procedure.

These results are taken from patent US6335354B2, “Aminopyridines and methods of using thereof” (CoCensys Inc., priority 2000, dated 2002).

The term ED50 denotes the dose that gives a 50% effect, or the effect in half of the subjects.

T1 sequence (P35499 whole entry, canonical isoform): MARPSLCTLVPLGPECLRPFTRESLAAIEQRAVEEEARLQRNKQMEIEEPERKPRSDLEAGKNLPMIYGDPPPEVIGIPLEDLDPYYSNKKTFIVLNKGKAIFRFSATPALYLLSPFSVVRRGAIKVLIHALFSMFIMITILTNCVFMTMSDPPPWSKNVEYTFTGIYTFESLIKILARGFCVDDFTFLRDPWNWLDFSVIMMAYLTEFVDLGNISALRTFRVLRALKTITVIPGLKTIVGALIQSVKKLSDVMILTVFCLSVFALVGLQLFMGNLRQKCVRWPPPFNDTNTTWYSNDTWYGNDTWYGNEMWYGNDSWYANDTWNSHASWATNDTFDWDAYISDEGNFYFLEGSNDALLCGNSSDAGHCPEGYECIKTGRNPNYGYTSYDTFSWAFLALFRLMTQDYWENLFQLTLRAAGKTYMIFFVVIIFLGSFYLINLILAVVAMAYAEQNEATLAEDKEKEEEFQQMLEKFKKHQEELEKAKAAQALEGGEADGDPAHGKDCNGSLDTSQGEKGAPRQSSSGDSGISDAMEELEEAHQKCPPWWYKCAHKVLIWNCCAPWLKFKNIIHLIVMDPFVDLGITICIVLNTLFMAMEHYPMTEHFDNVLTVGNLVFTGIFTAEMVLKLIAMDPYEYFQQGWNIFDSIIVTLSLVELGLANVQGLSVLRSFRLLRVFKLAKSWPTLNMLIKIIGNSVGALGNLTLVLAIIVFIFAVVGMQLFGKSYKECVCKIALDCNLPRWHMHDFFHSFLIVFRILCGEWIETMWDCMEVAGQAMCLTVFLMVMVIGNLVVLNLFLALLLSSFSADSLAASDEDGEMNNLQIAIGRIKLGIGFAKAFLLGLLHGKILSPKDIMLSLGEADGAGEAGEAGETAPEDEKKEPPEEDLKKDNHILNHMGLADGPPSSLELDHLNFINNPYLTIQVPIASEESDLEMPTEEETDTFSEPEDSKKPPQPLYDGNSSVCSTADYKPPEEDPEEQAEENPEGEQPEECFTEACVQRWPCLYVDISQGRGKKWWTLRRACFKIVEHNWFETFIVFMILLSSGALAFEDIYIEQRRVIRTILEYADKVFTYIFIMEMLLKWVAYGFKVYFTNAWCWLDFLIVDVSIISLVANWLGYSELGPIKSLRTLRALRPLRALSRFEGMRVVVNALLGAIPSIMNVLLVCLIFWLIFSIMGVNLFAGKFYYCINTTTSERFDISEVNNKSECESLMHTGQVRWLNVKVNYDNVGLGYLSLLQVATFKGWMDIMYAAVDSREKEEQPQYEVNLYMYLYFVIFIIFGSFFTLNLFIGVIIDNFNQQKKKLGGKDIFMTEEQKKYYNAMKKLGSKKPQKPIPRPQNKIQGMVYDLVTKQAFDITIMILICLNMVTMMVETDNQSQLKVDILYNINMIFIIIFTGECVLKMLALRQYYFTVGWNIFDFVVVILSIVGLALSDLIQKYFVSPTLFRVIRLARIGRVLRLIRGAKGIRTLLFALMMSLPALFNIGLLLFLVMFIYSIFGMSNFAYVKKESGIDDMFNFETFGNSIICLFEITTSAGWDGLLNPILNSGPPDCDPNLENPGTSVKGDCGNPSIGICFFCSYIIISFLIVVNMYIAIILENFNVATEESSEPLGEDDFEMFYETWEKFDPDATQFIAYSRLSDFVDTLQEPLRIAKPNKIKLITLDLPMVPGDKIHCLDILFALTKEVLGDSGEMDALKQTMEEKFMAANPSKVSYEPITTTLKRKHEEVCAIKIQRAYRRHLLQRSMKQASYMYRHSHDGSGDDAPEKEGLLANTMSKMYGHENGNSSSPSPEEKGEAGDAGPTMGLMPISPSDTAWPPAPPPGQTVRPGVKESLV

`Nc1ncccc1NCc1ccc(Oc2ccc(F)cc2)cc1` [N^3-[4-(4-Fluorophenoxy)benzyl]pyridine-2,3-diamine]: the “inhibition of voltage-gated sodium currents” value in experiment [1] is given as “dose-dependent inhibition”. For the same compound, in experiment [1] (inactivated state, read-out: apparent antagonist dissociation constant Ki (the concentration of a compound that produces half maximal inhibition) for inactivated sodium channels), the Ki was 60 nM. In addition, the “potency towards Na+ channels in their resting states” value in experiment [1] (resting state) is listed as “weak potency”.

`Nc1ncccc1NCc1ccc(OCc2cccc(F)c2)cc1` [N^3-[4-(3-Fluorobenzyloxy)benzyl]pyridine-2,3-diamine]: in experiment [2], the median effective dose (ED50) worked out at 2.9 mg/kg.
